Results published in patent US11331327B2, “Antibacterial use of halogenated salicylanilides” (UNION therapeutics A/S, priority 2014, dated 2022).
Converted amounts (≈) assume the structure as drawn. Where two headings read alike, the source gives them in different places.

Tested on: S. aureus clinical isolates and S. aureus ATCC 29213
Test: MIC assay according to CLSI criteria, Example 2, S. aureus strains
Assay type: cell-based, Staphylococcus aureus
Conditions: Staphylococcus aureus, read-out: MIC
Protocol: Strains were conserved in Luria Bertani (LB) Broth (S. aureus) or Brain Heart Infusion (BHI) (S. pyogenes) supplemented with glycerol 15% (v/v) at −80° C., and reactivated by isolation on LB (S. aureus) or BHI (S. pyogenes) agar plates. Strains were cultivated in Mueller Hinton (MH) Broth-cation adjusted (S. aureus) or BHI (S. pyogenes). All strains were cultivated aerobically (microaerobically for S. pyogenes strains) at 37° C.
Bacterial cultures were stopped in their exponential growth phase and plates were inoculated with the approximate concentration of 5×10^5 cells per well. Plates were incubated at 37° C. for 18 hours (S. aureus) or 24 hours (S. pyogenes).

## CC(=O)O[C@H]1C[C@@]2(C)[C@@H](C[C@@H](O)[C@H]3[C@@]4(C)CC[C@@H](O)[C@@H](C)[C@@H]4CC[C@@]32C)/C1=C(\CCC=C(C)C)C(=O)O [Fusidic acid]
ATCC29213, strain 9-1862936
  MIC: 0.125 µg/mL (≈ 0.242 µM)
ATCC29213, strain 9-2625962
  MIC: 0.25 µg/mL (≈ 0.484 µM)
ATCC29213, strain 9-2642158
  MIC: 0.25 µg/mL (≈ 0.484 µM)
ATCC29213, strain 9-2955245
  MIC: 0.25 µg/mL (≈ 0.484 µM)
ATCC29213, strain 9-26422166
  MIC: 8 µg/mL (≈ 15.5 µM)
ATCC29213, strain 000040C
  MIC: 0.25 µg/mL (≈ 0.484 µM)
ATCC29213, strain 000041C
  MIC: 0.25 µg/mL (≈ 0.484 µM)
ATCC29213, strain 000274T
  MIC: 0.5 µg/mL (≈ 0.968 µM)
ATCC29213, strain 114660U
  MIC: 0.25 µg/mL (≈ 0.484 µM)
ATCC29213, strain 115015T
  MIC: 0.25 µg/mL (≈ 0.484 µM)
ATCC29213, strain 115242C
  MIC: 8 µg/mL (≈ 15.5 µM)
ATCC29213, strain 115263C
  MIC: 0.125 µg/mL (≈ 0.242 µM)
ATCC29213, strain 115268C
  MIC: 0.25 µg/mL (≈ 0.484 µM)
ATCC29213, strain 115273C
  MIC: 0.25 µg/mL (≈ 0.484 µM)
ATCC29213, strain 115295C
  MIC: 0.125 µg/mL (≈ 0.242 µM)
ATCC29213, strain 115303C
  MIC: 0.25 µg/mL (≈ 0.484 µM)
ATCC29213, strain 115370U
  MIC: 0.5 µg/mL (≈ 0.968 µM)
ATCC29213, strain 115427C
  MIC: 0.125 µg/mL (≈ 0.242 µM)
ATCC29213, strain 115445C
  MIC: 0.25 µg/mL (≈ 0.484 µM)
ATCC29213, strain 115561C
  MIC: 0.125 µg/mL (≈ 0.242 µM)
ATCC29213, strain 115584D
  MIC: 0.25 µg/mL (≈ 0.484 µM)
ATCC29213, strain 115628T
  MIC: 8 µg/mL (≈ 15.5 µM)
ATCC29213, strain 115690C
  MIC: 8 µg/mL (≈ 15.5 µM)
ATCC29213, strain 115691T
  MIC: 0.25 µg/mL (≈ 0.484 µM)
ATCC29213, strain 115740E
  MIC: 0.25 µg/mL (≈ 0.484 µM)
ATCC29213, strain 115810E
  MIC: 0.25 µg/mL (≈ 0.484 µM)
ATCC29213, strain 115903T
  MIC: 8 µg/mL (≈ 15.5 µM)
ATCC29213, strain 116122T
  MIC: 0.125 µg/mL (≈ 0.242 µM)
ATCC29213, strain ATCC 29213
  MIC: 0.06 µg/mL (≈ 0.116 µM)
ATCC29213, strain E5-1029252
  MIC: 0.25 µg/mL (≈ 0.484 µM)
ATCC29213, strain E5-1029558
  MIC: 16 µg/mL (≈ 31 µM)
ATCC29213, strain E5-1030440
  MIC: 0.25 µg/mL (≈ 0.484 µM)
ATCC29213, strain E5-1030469
  MIC: 0.125 µg/mL (≈ 0.242 µM)
ATCC29213, strain E5-1030472
  MIC: 0.25 µg/mL (≈ 0.484 µM)
ATCC29213, strain E5-1030482
  MIC: 16 µg/mL (≈ 31 µM)
ATCC29213, strain E5-1033076 (first line, r202)
  MIC: 0.25 µg/mL (≈ 0.484 µM)
ATCC29213, strain E5-1033076 (second line, r203)
  MIC: 0.25 µg/mL (≈ 0.484 µM)
ATCC29213, strain E5-1033088
  MIC: 0.25 µg/mL (≈ 0.484 µM)
ATCC29213, strain E5-1033091
  MIC: 0.03 µg/mL (≈ 0.0581 µM)
ATCC29213, strain E5-1035277
  MIC: 16 µg/mL (≈ 31 µM)
ATCC29213, strain E5-1035284
  MIC: 0.25 µg/mL (≈ 0.484 µM)
ATCC29213, strain E5-1035775
  MIC: > 16 µg/mL
ATCC29213, strain E5-1035779
  MIC: 0.125 µg/mL (≈ 0.242 µM)
ATCC29213, strain E5-1037958
  MIC: 16 µg/mL (≈ 31 µM)
ATCC29213, strain E5-1037971
  MIC: 0.25 µg/mL (≈ 0.484 µM)
ATCC29213, strain E5-1038279
  MIC: 4 µg/mL (≈ 7.74 µM)
ATCC29213, strain E5-1038286
  MIC: 0.25 µg/mL (≈ 0.484 µM)
ATCC29213, strain E5-1038294
  MIC: 0.25 µg/mL (≈ 0.484 µM)
ATCC29213, strain E5-1039684
  MIC: 16 µg/mL (≈ 31 µM)
ATCC29213, strain E5-1039697
  MIC: 0.5 µg/mL (≈ 0.968 µM)
ATCC29213, strain E5-1041977
  MIC: 16 µg/mL (≈ 31 µM)
ATCC29213, strain E5-1041979
  MIC: 0.25 µg/mL (≈ 0.484 µM)
ATCC29213, strain E5-1041980
  MIC: 0.25 µg/mL (≈ 0.484 µM)
ATCC29213, strain E5-1041987
  MIC: 16 µg/mL (≈ 31 µM)
ATCC29213, strain E5-1043184
  MIC: 16 µg/mL (≈ 31 µM)
ATCC29213, strain E5-1043668
  MIC: 1 µg/mL (≈ 1.94 µM)
ATCC29213, strain E5-1045179
  MIC: 0.25 µg/mL (≈ 0.484 µM)
ATCC29213, strain E5-1046019
  MIC: 0.25 µg/mL (≈ 0.484 µM)
ATCC29213, strain E5-1046020
  MIC: 0.25 µg/mL (≈ 0.484 µM)
ATCC29213, strain E5-1046039
  MIC: 0.25 µg/mL (≈ 0.484 µM)
ATCC29213, strain E5-1046070
  MIC: 0.25 µg/mL (≈ 0.484 µM)
ATCC29213, strain E5-1046074
  MIC: 0.125 µg/mL (≈ 0.242 µM)
ATCC29213, strain E5-1046085
  MIC: 8 µg/mL (≈ 15.5 µM)
ATCC29213, strain E5-1046096
  MIC: 0.5 µg/mL (≈ 0.968 µM)
ATCC29213, strain E5-1046296
  MIC: 0.125 µg/mL (≈ 0.242 µM)
ATCC29213, strain E5-1046297
  MIC: 0.125 µg/mL (≈ 0.242 µM)
ATCC29213, strain E5-1046298
  MIC: 0.125 µg/mL (≈ 0.242 µM)
ATCC29213, strain E5-1046723
  MIC: 0.5 µg/mL (≈ 0.968 µM)
ATCC29213, strain E5-1047585
  MIC: 0.25 µg/mL (≈ 0.484 µM)
ATCC29213, strain E5-1047606
  MIC: 8 µg/mL (≈ 15.5 µM)
ATCC29213, strain E5-1047924
  MIC: 0.25 µg/mL (≈ 0.484 µM)
ATCC29213, strain E5-1048204
  MIC: 0.25 µg/mL (≈ 0.484 µM)
ATCC29213, strain E5-1048428
  MIC: 0.5 µg/mL (≈ 0.968 µM)
ATCC29213, strain E5-1048654
  MIC: 0.5 µg/mL (≈ 0.968 µM)
ATCC29213, strain E5-1048670
  MIC: 0.5 µg/mL (≈ 0.968 µM)
ATCC29213, strain EEFIC 01
  MIC: 4 µg/mL (≈ 7.74 µM)
ATCC29213, strain EEFIC 02
  MIC: 4 µg/mL (≈ 7.74 µM)
ATCC29213, strain K000772
  MIC: > 16 µg/mL
ATCC29213, strain K000796
  MIC: 8 µg/mL (≈ 15.5 µM)
ATCC29213, strain K000863
  MIC: 1 µg/mL (≈ 1.94 µM)
ATCC29213, strain K000864
  MIC: 0.25 µg/mL (≈ 0.484 µM)
ATCC29213, strain K000866
  MIC: 8 µg/mL (≈ 15.5 µM)
ATCC29213, strain K115498
  MIC: 0.125 µg/mL (≈ 0.242 µM)
ATCC29213, strain K115688
  MIC: 0.125 µg/mL (≈ 0.242 µM)
ATCC29213, strain K115689
  MIC: 0.125 µg/mL (≈ 0.242 µM)
ATCC29213, strain R000019
  MIC: 0.125 µg/mL (≈ 0.242 µM)
ATCC29213, strain R000020
  MIC: 0.125 µg/mL (≈ 0.242 µM)
ATCC29213, strain R000024
  MIC: 16 µg/mL (≈ 31 µM)
ATCC29213, strain U115579
  MIC: 0.25 µg/mL (≈ 0.484 µM)
ATCC 29213 / MRSA, strain MRSA 01
  MIC: 0.125 µg/mL (≈ 0.242 µM)
ATCC 29213 / MRSA, strain MRSA 02
  MIC: 0.5 µg/mL (≈ 0.968 µM)
ATCC 29213 / MRSA, strain MRSA 03
  MIC: 16 µg/mL (≈ 31 µM)
ATCC 29213 / MRSA, strain MRSA 04
  MIC: 0.25 µg/mL (≈ 0.484 µM)
ATCC 29213 / MRSA, strain MRSA 05
  MIC: 0.125 µg/mL (≈ 0.242 µM)
ATCC 29213 / MRSA, strain MRSA 06
  MIC: 0.125 µg/mL (≈ 0.242 µM)
ATCC 29213 / MRSA, strain MRSA 07
  MIC: 0.25 µg/mL (≈ 0.484 µM)
ATCC 29213 / MRSA, strain MRSA 08
  MIC: 0.125 µg/mL (≈ 0.242 µM)
ATCC 29213 / MRSA, strain MRSA 09
  MIC: 0.25 µg/mL (≈ 0.484 µM)
ATCC 29213 / MRSA, strain MRSA 10
  MIC: 1 µg/mL (≈ 1.94 µM)
ATCC 29213 / MRSA, strain MRSA 11
  MIC: 1 µg/mL (≈ 1.94 µM)
ATCC 29213 / MRSA, strain MRSA 12
  MIC: 4 µg/mL (≈ 7.74 µM)
ATCC 29213 / MRSA, strain MRSA 13
  MIC: 4 µg/mL (≈ 7.74 µM)
ATCC 29213 / MRSA, strain MRSA 14
  MIC: > 16 µg/mL
